# Test system: MV-4-11 cells
# Assay: Gene expression microarray analysis (Affymetrix PrimeView) and GSEA
# Assay type: cell-based, human
# Design: RFU PODN (11730768_x_at) / Fold change /veh PODN (11730768_x_at) / RFU LINC00158 (11744669_a_at) / Fold change /veh LINC00158 (11744669_a_at) / RFU DUSP10 (11751237_a_at) / Fold change /veh DUSP10 (11751237_a_at) / RFU ID3 (11757404_x_at) / Fold change /veh ID3 (11757404_x_at) / RFU PLEKHG5 (11737974_s_at) / Fold change /veh PLEKHG5 (11737974_s_at) / RFU LRRC4B (11730491_at) / Fold change /veh LRRC4B (11730491_at) / RFU GIMAP4 (11747438_a_at) / Fold change /veh GIMAP4 (11747438_a_at) / RFU KRT8 (11758183_x_at) / Fold change /veh KRT8 (11758183_x_at) / RFU CNN1 (11734310_a_at) / Fold change /veh CNN1 (11734310_a_at) / RFU VPS37D (11726825_at) / Fold change /veh VPS37D (11726825_at) / RFU C10orf10 (11716522_x_at) / Fold change /veh C10orf10 (11716522_x_at) / RFU KIR2DL2 /// KIR2DL4 /// KIR2DL5A /// KIR2DL5B /// KIR2DS1 /// KIR2DS2 /// KIR2DS3 /// KIR2DS4 /// KIR3DL3 /// KIR3DL3 /// KIR3DS1 (11738374_at) / Fold change /veh KIR2DL2 /// KIR2DL4 /// KIR2DL5A /// KIR2DL5B /// KIR2DS1 /// KIR2DS2 /// KIR2DS3 /// KIR2DS4 /// KIR3DL3 /// KIR3DL3 /// KIR3DS1 (11738374_at) / RFU C1QL1 (11718748_at) / Fold change /veh C1QL1 (11718748_at) / RFU TMPRSS4 (11747572_a_at) / Fold change /veh TMPRSS4 (11747572_a_at) / RFU HAMP (11756126_x_at) / Fold change /veh HAMP (11756126_x_at) / RFU RNFT2 (11725882_a_at) / Fold change /veh RNFT2 (11725882_a_at) / RFU NR4A2 (11747474_a_at) / Fold change /veh NR4A2 (11747474_a_at) / RFU ABCC12 (11746883_a_at) / Fold change /veh ABCC12 (11746883_a_at) / RFU TMEM136 (11760407_x_at) / Fold change /veh TMEM136 (11760407_x_at) / RFU CLDN22 /// WWC2 (11732394_at) / Fold change /veh CLDN22 /// WWC2 (11732394_at) / RFU HLA-DPB1 (11760878_x_at) / Fold change /veh HLA-DPB1 (11760878_x_at) / RFU SPINT1 (11716480_a_at) / Fold change /veh SPINT1 (11716480_a_at) / RFU GAP43 (11754022_s_at) / Fold change /veh GAP43 (11754022_s_at) / RFU A4GNT (11735810_at) / Fold change /veh A4GNT (11735810_at) / RFU PRB3 (11715151_x_at) / Fold change /veh PRB3 (11715151_x_at) / RFU TUBB4B (11761932_at) / Fold change /veh TUBB4B (11761932_at) / RFU CAPN14 (11732068_a_at) / Fold change /veh CAPN14 (11732068_a_at) / RFU TMCC2 (11721928_a_at) / Fold change /veh TMCC2 (11721928_a_at) / RFU IRGQ (11745062_a_at) / Fold change /veh IRGQ (11745062_a_at) / RFU FAM174B (11720279_a_at) / Fold change /veh FAM174B (11720279_a_at) / RFU TMPRSS4 (11748680_a_at) / Fold change /veh TMPRSS4 (11748680_a_at) / RFU FAM212B (11763350_a_at) / Fold change /veh FAM212B (11763350_a_at) / RFU PLEKHG5 (11743358_a_at) / Fold change /veh PLEKHG5 (11743358_a_at) / RFU ZSCAN30 (11745921_a_at) / Fold change /veh ZSCAN30 (11745921_a_at) / RFU CMKLR1 (11741424_a_at) / Fold change /veh CMKLR1 (11741424_a_at) / RFU LOC101060620 /// MAPK8IP1 (11723275_at) / Fold change /veh LOC101060620 /// MAPK8IP1 (11723275_at) / RFU SPTSSB (11747773_x_at) / Fold change /veh SPTSSB (11747773_x_at) / RFU PRSS12 (11739890_at) / Fold change /veh PRSS12 (11739890_at) / RFU BIN1 (11741810_x_at) / Fold change /veh BIN1 (11741810_x_at) / RFU WNT11 (11732464_a_at) / Fold change /veh WNT11 (11732464_a_at) / RFU C10orf10 (11716521_a_at) / Fold change /veh C10orf10 (11716521_a_at) / RFU C5orf56 (11738089_at) / Fold change /veh C5orf56 (11738089_at) / RFU CYB561 (11721691_x_at) / Fold change /veh CYB561 (11721691_x_at) / RFU ANKRD19P (11752326_a_at) / Fold change /veh ANKRD19P (11752326_a_at) / RFU OR2T12 /// OR2T33 /// OR2T8 (11738714_s_at) / Fold change /veh OR2T12 /// OR2T33 /// OR2T8 (11738714_s_at) / RFU VCAN (11748164_a_at) / Fold change /veh VCAN (11748164_a_at) / RFU JSRP1 (11732532_at) / Fold change /veh JSRP1 (11732532_at) / RFU KRTAP10-11 (11738290_x_at) / Fold change /veh KRTAP10-11 (11738290_x_at) / RFU MYO3A (11730013_a_at) / Fold change /veh MYO3A (11730013_a_at) / RFU EBF3 (11725865_a_at) / Fold change /veh EBF3 (11725865_a_at) / RFU CAMK2N1 (11719241_x_at) / Fold change /veh CAMK2N1 (11719241_x_at) / RFU C5orf56 (11738088_a_at) / Fold change /veh C5orf56 (11738088_a_at) / RFU OLFML3 (11715873_a_at) / Fold change /veh OLFML3 (11715873_a_at) / RFU LOC100653217 /// NTM (11731650_a_at) / Fold change /veh LOC100653217 /// NTM (11731650_a_at) / RFU MAPK11 (11762145_a_at) / Fold change /veh MAPK11 (11762145_a_at) / RFU FIZ1 (11724087_x_at) / Fold change /veh FIZ1 (11724087_x_at) / RFU OASL (11726364_x_at) / Fold change /veh OASL (11726364_x_at) / RFU SOX15 (11748057_x_at) / Fold change /veh SOX15 (11748057_x_at) / RFU CD79A (11719716_a_at) / Fold change /veh CD79A (11719716_a_at) / RFU HIST1H1D (11736915_at) / Fold change /veh HIST1H1D (11736915_at) / RFU CASKIN2 (11723855_a_at) / Fold change /veh CASKIN2 (11723855_a_at) / RFU LOC730098 (11760151_x_at) / Fold change /veh LOC730098 (11760151_x_at) / RFU OR4N2 (11742367_at) / Fold change /veh OR4N2 (11742367_at) / RFU PRRT2 (11749266_a_at) / Fold change /veh PRRT2 (11749266_a_at) / RFU SNX32 (11753110_a_at) / Fold change /veh SNX32 (11753110_a_at) / RFU CDHR5 (11726645_a_at) / Fold change /veh CDHR5 (11726645_a_at) / RFU RCAN1 (11760418_a_at) / Fold change /veh RCAN1 (11760418_a_at) / RFU FAM167A (11723789_a_at) / Fold change /veh FAM167A (11723789_a_at) / RFU FAM26E (11764081_at) / Fold change /veh FAM26E (11764081_at) / RFU ISYNA1 (11749810_s_at) / Fold change /veh ISYNA1 (11749810_s_at) / RFU ACY1 (11761880_at) / Fold change /veh ACY1 (11761880_at) / RFU 11764098_at / Fold change /veh 11764098_at / RFU SAMD14 (11745864_x_at) / Fold change /veh SAMD14 (11745864_x_at) / RFU NPB (11741838_a_at) / Fold change /veh NPB (11741838_a_at) / RFU TMPRSS6 (11731388_a_at) / Fold change /veh TMPRSS6 (11731388_a_at) / RFU KRTAP10-2 (11738614_at) / Fold change /veh KRTAP10-2 (11738614_at) / RFU ARHGAP8 /// PRR5-ARHGAP8 (11727945_x_at) / Fold change /veh ARHGAP8 /// PRR5-ARHGAP8 (11727945_x_at) / RFU KRTAP5-7 /// NADSYN1 (11734609_at) / Fold change /veh KRTAP5-7 /// NADSYN1 (11734609_at) / RFU RASL12 (11751679_a_at) / Fold change /veh RASL12 (11751679_a_at) / RFU CDKN2B (11736163_a_at) / Fold change /veh CDKN2B (11736163_a_at) / RFU PRF1 (11729649_at) / Fold change /veh PRF1 (11729649_at) / RFU, ZNF638 /// ZNF638-IT1 / Fold change vs veh, ZNF638 /// ZNF638-IT1 / RFU, PANK3 / Fold change vs veh, PANK3 / RFU, SH3YL1 / Fold change vs veh, SH3YL1 / RFU, ZEB2 / Fold change vs veh, ZEB2 / RFU, NRIP1 / Fold change vs veh, NRIP1 / RFU, PTTG1IP / Fold change vs veh, PTTG1IP / RFU, CAPN2 / Fold change vs veh, CAPN2 / RFU, MED14 / Fold change vs veh, MED14 / RFU, SNORA58 / Fold change vs veh, SNORA58 / RFU, C1orf63 / Fold change vs veh, C1orf63 / RFU, LRRFIP1 / Fold change vs veh, LRRFIP1 / RFU, NDUFAF7 / Fold change vs veh, NDUFAF7 / RFU, SLC12A2 / Fold change vs veh, SLC12A2 / RFU, IBTK / Fold change vs veh, IBTK / RFU, ESF1 / Fold change vs veh, ESF1 / Fold change vs veh, TMEM50B / RFU, TAOK1 / Fold change vs veh, TAOK1 / RFU, ACBD3 / Fold change vs veh, ACBD3 / RFU, TMA16 / Fold change vs veh, TMA16 / RFU, RWDD3 / Fold change vs veh, RWDD3 / RFU, BCAT1 / Fold change vs veh, BCAT1 / RFU, EDEM3 / Fold change vs veh, EDEM3 / RFU, TMEM33 / Fold change vs veh, TMEM33 / RFU, WDR75 / Fold change vs veh, WDR75 / RFU, AHCTF1 / Fold change vs veh, AHCTF1 / RFU, TFRC / Fold change vs veh, TFRC / RFU, ZDHHC17 / Fold change vs veh, ZDHHC17 / RFU, NOM1 / Fold change vs veh, NOM1 / RFU, ARL8B / Fold change vs veh, ARL8B / RFU, ZBTB11 / Fold change vs veh, ZBTB11 / RFU, TAMM41 / Fold change vs veh, TAMM41 / RFU, KIAA1704 /// LOC100996395 / Fold change vs veh, KIAA1704 /// LOC100996395 / RFU, ING1 / Fold change vs veh, ING1 / RFU, TRMT61B / Fold change vs veh, TRMT61B / RFU, FUBP3 / Fold change vs veh, FUBP3 / RFU, TP53 / Fold change vs veh, TP53 / RFU, TNKS2 / Fold change vs veh, TNKS2 / RFU, ZFP14 / Fold change vs veh, ZFP14 / RFU, ACTR2 / Fold change vs veh, ACTR2 / RFU, PPP3R1 / Fold change vs veh, PPP3R1 / RFU, PIK3R1 / Fold change vs veh, PIK3R1 / RFU, HNRNPA1 / Fold change vs veh, HNRNPA1 / RFU, RNF170 / Fold change vs veh, RNF170 / RFU, ZNF28 / Fold change vs veh, ZNF28 / RFU, RNGTT / Fold change vs veh, RNGTT / RFU, OGT / Fold change vs veh, OGT / RFU, BRD1 / Fold change vs veh, BRD1 / RFU, MARS / Fold change vs veh, MARS / RFU, ZNF655 / Fold change vs veh, ZNF655 / RFU, FAHD1 / Fold change vs veh, FAHD1 / RFU, BDP1 / Fold change vs veh, BDP1 / RFU, LRRCC1 / Fold change vs veh, LRRCC1 / RFU, ARID1A / Fold change vs veh, ARID1A / RFU, ZNF146 / Fold change vs veh, ZNF146 / RFU, ZNF330 / Fold change vs veh, ZNF330 / RFU, GPN3 / Fold change vs veh, GPN3 / RFU, C9orf123 / Fold change vs veh, C9orf123 / RFU, N4BP2L2 / Fold change vs veh, N4BP2L2 / RFU, ARFIP1 / Fold change vs veh, ARFIP1 / RFU, FAM179B / Fold change vs veh, FAM179B / RFU, BCL10 / Fold change vs veh, BCL10 / RFU, UHRF1BP1L / Fold change vs veh, UHRF1BP1L / RFU, BET1 / Fold change vs veh, BET1 / RFU, CNOT2 / Fold change vs veh, CNOT2 / RFU, ZNF268 / Fold change vs veh, ZNF268 / Fold change vs veh, ZNF507 / RFU, DGCR2 / Fold change vs veh, DGCR2 / RFU, WDSUB1 / Fold change vs veh, WDSUB1 / Fold change vs veh, HSP90B1 /// MIR3652 / RFU, ADSS / Fold change vs veh, ADSS / RFU, GK / Fold change vs veh, GK / RFU, ZNF148 / Fold change vs veh, ZNF148 / RFU, TAF9 / Fold change vs veh, TAF9 / RFU, SLC1A5 / Fold change vs veh, SLC1A5 / RFU, SLMO2 / Fold change vs veh, SLMO2 / RFU, ABCC4 / Fold change vs veh, ABCC4 / RFU, LOC101060439 /// RAP1B / Fold change vs veh, LOC101060439 /// RAP1B / RFU, RFX7 / Fold change vs veh, RFX7 / RFU, GTPBP10 / Fold change vs veh, GTPBP10 / RFU, CNEP1R1 / Fold change vs veh, CNEP1R1 / RFU, BIVM-ERCC5 /// ERCC5 / Fold change vs veh, BIVM-ERCC5 /// ERCC5 / RFU, ILF3 / Fold change vs veh, ILF3 / RFU 11762660_at / Fold change /veh 11762660_at / RFU VCAN (11757783_s_at) / Fold change /veh VCAN (11757783_s_at) / RFU DDX43 (11728927_at) / Fold change /veh DDX43 (11728927_at) / RFU KRT8 (11758188_x_at) / Fold change /veh KRT8 (11758188_x_at) / RFU NKD1 (11759106_at) / Fold change /veh NKD1 (11759106_at) / RFU SRD5A1 (11742802_a_at) / Fold change /veh SRD5A1 (11742802_a_at) / RFU TPSAB1 /// TPSB2 (11721975_s_at) / Fold change /veh TPSAB1 /// TPSB2 (11721975_s_at) / RFU GSTM3 (11746129_a_at) / Fold change /veh GSTM3 (11746129_a_at) / RFU IL23R (11737362_x_at) / Fold change /veh IL23R (11737362_x_at) / RFU TMEM51 (11727254_a_at) / Fold change /veh TMEM51 (11727254_a_at) / RFU PIWIL2 (11732686_x_at) / Fold change /veh PIWIL2 (11732686_x_at) / RFU ORM1 (11744905_x_at) / Fold change /veh ORM1 (11744905_x_at) / RFU CCDC152 (11743942_at) / Fold change /veh CCDC152 (11743942_at) / RFU ECM1 (11717891_a_at) / Fold change /veh ECM1 (11717891_a_at) / RFU IL23R (11748794_a_at) / Fold change /veh IL23R (11748794_a_at) / RFU TNFAIP8L3 (11732012_x_at) / Fold change /veh TNFAIP8L3 (11732012_x_at) / RFU MBOAT4 (11741988_at) / Fold change /veh MBOAT4 (11741988_at) / RFU 11764193_at / Fold change /veh 11764193_at / RFU TMEM53 (11763286_at) / Fold change /veh TMEM53 (11763286_at) / RFU MAGEB2 (11727129_at) / Fold change /veh MAGEB2 (11727129_at) / RFU TMEM200A (11744735_a_at) / Fold change /veh TMEM200A (11744735_a_at) / RFU CCDC152 (11751479_a_at) / Fold change /veh CCDC152 (11751479_a_at) / RFU FAM211A (11726209_a_at) / Fold change /veh FAM211A (11726209_a_at) / RFU RGS16 (11746705_a_at) / Fold change /veh RGS16 (11746705_a_at) / RFU VCAN (11755009_s_at) / Fold change /veh VCAN (11755009_s_at) / RFU RHOB (11743442_s_at) / Fold change /veh RHOB (11743442_s_at) / RFU RGS16 (11720943_a_at) / Fold change /veh RGS16 (11720943_a_at) / RFU RGS16 (11720944_at) / Fold change /veh RGS16 (11720944_at) / RFU, VPS4B / Fold change vs veh, VPS4B / RFU, CREB1 / Fold change vs veh, CREB1 / RFU, DNAJC13 / Fold change vs veh, DNAJC13 / RFU, GNAQ / Fold change vs veh, GNAQ / RFU, CDK5R1 / Fold change vs veh, CDK5R1 / RFU, ZRANB3 / Fold change vs veh, ZRANB3 / RFU, CUL4A / Fold change vs veh, CUL4A / RFU, CCNY / Fold change vs veh, CCNY / RFU, UFL1 / Fold change vs veh, UFL1 / RFU, COG3 / Fold change vs veh, COG3 / RFU, DIAPH2 / Fold change vs veh, DIAPH2 / RFU, SKA2 / Fold change vs veh, SKA2 / RFU, AFF3 / Fold change vs veh, AFF3 / RFU, LMF1 / Fold change vs veh, LMF1 / RFU, IPO11 / Fold change vs veh, IPO11 / RFU, DFFB / Fold change vs veh, DFFB / RFU, FOXP1 / Fold change vs veh, FOXP1 / RFU, CARD8 / Fold change vs veh, CARD8 / RFU, STRN3 / Fold change vs veh, STRN3 / RFU, ADK / Fold change vs veh, ADK / RFU, RASSF2 / Fold change vs veh, RASSF2 / RFU, WIPF1 / Fold change vs veh, WIPF1 / RFU, LARP1B / Fold change vs veh, LARP1B / RFU, RASA1 / Fold change vs veh, RASA1 / RFU, RB1 / Fold change vs veh, RB1 / RFU, PPFIA1 / Fold change vs veh, PPFIA1 / RFU, MAT2A / Fold change vs veh, MAT2A / RFU, CCT5 / Fold change vs veh, CCT5 / RFU, WDR92 / Fold change vs veh, WDR92 / RFU, CUX1 / Fold change vs veh, CUX1 / RFU, TTC7A / Fold change vs veh, TTC7A / RFU, TMEM135 / Fold change vs veh, TMEM135 / RFU, DEPTOR / Fold change vs veh, DEPTOR / RFU, CPM / Fold change vs veh, CPM / RFU, DNAJB6 / Fold change vs veh, DNAJB6 / RFU, CACNA2D3 / Fold change vs veh, CACNA2D3 / RFU, DTX4 / Fold change vs veh, DTX4 / RFU, TFCP2 / Fold change vs veh, TFCP2 / RFU, GMCL1 /// GMCL1P1 / Fold change vs veh, GMCL1 /// GMCL1P1 / RFU, AEBP2 / Fold change vs veh, AEBP2 / RFU, SNHG1 /// SNORD22 /// SNORD25 /// SNORD26 /// SNORD27 /// SNORD28 /// SNORD29 /// SNORD31 / Fold change vs veh, SNHG1 /// SNORD22 /// SNORD25 /// SNORD26 /// SNORD27 /// SNORD28 /// SNORD29 /// SNORD31 / Fold change (Aza/veh), C12orf56 (ProbeSet 11735607_a_at) / Fold change (ACY-1035/veh), C12orf56 (ProbeSet 11735607_a_at) / Fold change (Aza/veh), FGFR1OP (ProbeSet 11751329_s_at) / Fold change (ACY-1035/veh), FGFR1OP (ProbeSet 11751329_s_at) / Fold change (Aza/veh), VPS36 (ProbeSet 11739960_a_at) / Fold change (ACY-1035/veh), VPS36 (ProbeSet 11739960_a_at) / RFU SYPL1 (11715823_x_at) / Fold change /veh SYPL1 (11715823_x_at) / RFU IGFBP7 (11715501_s_at) / Fold change /veh IGFBP7 (11715501_s_at) / RFU REEP3 (11722064_at) / Fold change /veh REEP3 (11722064_at) / RFU IGLL1 (11728026_x_at) / Fold change /veh IGLL1 (11728026_x_at): dose or concentration left out as unconfirmed
# Conditions: ProbeSet 11745428_a_at; LIST D
smiles,measurement,value
Nc1ncn([C@@H]2O[C@H](CO)[C@@H](O)[C@H]2O)c(=O)n1 [azacitidine],"RFU, DFFB",92.76 RFU

# Reference: article PMC5218480 (PLoS ONE, 2017)
